The source of these data is patent publication US8552169B2, “Transcription factor-based biosensor” (The Regents of the University of California, priority 2009, dated 2013).

In experiment [1] the test system is pBMO promoter activity. The experiment is classed as cell-based, E. coli. To be noted: for activation of pBMO-promoter expression by BmoR in response to alcohol: E. coli, pBMO::GFP reporter. How it is done: A pBMO-promoter::GFP reporter cassette is constructed. The pBMO-promoter comprises the nucleotide sequences from the −425 nucleotide to the +11 nucleotide. This section of the pBMO-promoter comprises the upstream activating sequence (UAS) to which BmoR binds. A deletion analysis is performed whereby the upstream sequence is deleted to produce reporter cassettes comprising of the −325 nucleotide to the +1 nucleotide fragment, the −225 nucleotide to the +1 nucleotide fragment, the −175 nucleotide to the +1 nucleotide fragment, the +1 nucleotide to the +1 nucleotide fragment, and no fragment (FIG. 3). The various reporter cassettes are introduced into an E. coli. also containing the bmoR gene operatively linked to the pBAD promoter or a pZT promoter. The pBAD promoter is taught by Guzman, L. M., et al., “Tight regulation, modulation, and high-level expression by vectors containing the arabinose PBAD promoter”, J. Bacteriol. 177(14):4121-4130 (1995), which is incorporated by reference.
Using the pBMO-promoter reporter cassette comprising of the −325 nucleotide to the +1 nucleotide fragment, the E. coli strain is analyzed for the optimum temperature for pBMO promoter activity using different concentrations of butan-1-ol.
Using the pBMO-promoter reporter cassette comprising of the −325 nucleotide to the +1 nucleotide fragment, the E. coli strain is analyzed for pBMO promoter activity in response to different alcohols: butan-1-ol (FIG. 5), ethanol (FIG. 6), 1-propanol (FIG. 6), 2-propanol (FIG. 6), pentanol (FIG. 5), and hexanol (FIG. 5). From an overnight culture harboring a plasmid containing GFP under control of pBMO and BmoR under control of pZT 5 mL cultures of rich media were inoculated (1.5% v/v). Cultures are grown at 37° C., 200 rpm, until reaching an optical density (OD600) of 0.25 and induced with 57.5 ng/mL anhydrotetracyline. The cultures are than grown at 25° C., 200 rpm, until reaching an OD600=0.80 at which point they are diluted to an OD600=0.20 in media containing a range of alcohol concentrations. The culture tubes are sealed with parafilm and grown at 25° C., 200 rpm, for 18 hours. 150 μl culture samples are quantified for GFP fluorescence on a 96-well plate reader.

Experiment [2] deals with E. coli cultures harboring the butanol biosensor controlling TetA expression. Particulars: media with multiple concentrations of butanol and tetracycline; N=4. As to the method: The BmoR transcription factor is used to construct a genetic selection for the presence of butanol in the media.
Maximal growth rates are calculated by fitting curves to the Gompertz equation. […] N=4, mean±standard deviation.

For experiment [3], the system named is 300-nucleotide DNA fragment upstream of the pBMO-promoter. Briefly: Gel mobility shift assay. The experiment is classed as binding. To be noted: purified His-tagged BmoR, DIG Gel Shift Kit. The source says: A DIG Gel Shift Kit (Roche Applied Science, Indianapolis, Ind.) is used according to the manufacturer's instructions.
In general terms: In EMSA bound probe runs differently from free probe, usually more slowly.

Turning to `CCCO` [1-propanol], in experiment [1], the “activation of pBMO-promoter expression by BmoR in response to alcohol” value (from here on “activation of pBMO-promoter expression”) is recorded as “capable of activating pBMO-promoter expression”.

Turning to `CCCCCO` [1-pentanol], the “activation of pBMO-promoter expression” value in experiment [1] is listed as “capable of activating pBMO-promoter expression”.

Regarding `CCO` [ethanol], the “activation of pBMO-promoter expression” value in experiment [1] is recorded as “capable of activating pBMO-promoter expression”.

For `CC(C)O` [2-propanol], the “activation of pBMO-promoter expression” value in experiment [1] was “capable of activating pBMO-promoter expression”.

On to `CCC(C)O` (stereo not drawn) [butan-1-ol], for which the “activation of pBMO-promoter expression” value in experiment [1] is recorded as “capable of activating pBMO-promoter expression”. The “activation of the reporter gene (optimum condition)” value in experiment [1] (cultured at 25° C. with 0.5% of butan-1-ol by volume, compared to the other conditions tested) is given as “the activation of the reporter gene is the strongest”. Besides, the “butanol dependent growth (maximal growth rate)” value in experiment [2] is listed as “strong butanol dependent growth”.

For `CCCCCCO` [1-hexanol], the “activation of pBMO-promoter expression” value in experiment [1] is “capable of activating pBMO-promoter expression”.

B1: BmoR: σ54-dependent transcription factor (activator protein) of P. butanovora, SEQ ID NO: 4, activated by C2-C8 alcohols (protein, listed as Pseudomonas butanova)
chain: MSKMQEFARLETVASMRRAVWDGNECQPGKVADVVLRSWTRCRAEGVVPNARQEFDPIPRTALDETVEAKRALILAAEPVVDALMEQMNDAPRMIILNDERGVVLLNQGNDTLLEDARRRAVRVGVCWDEHARGTNAMGTALAERRPVAIHGAEHYLESNTIFTCTAAPIYDPFGEFTGILDISGYAGDMGPVPIPFVQMAVQFIENQLFRQTFADCILLHFHVRPDFVGTMREGIAVLSREGTIVSMNRAGLKIAGLNLEAVADHRFDSVFDLNFGAFLDHVRQSAFGLVRVSLYGGVQVYARVEPGLRVPPRPAAHARPPRPAPRPLDSLDTGDAAVRLAIDRARRAIGRNLSILIQGETGAGKEVFAKHLHAESPRSKGPFVAVNCAAIPEGLIESELFGYEEGAFTGGRRKGNIGKVAQAHGGTLFLDEIGDMAPGLQTRLLRVLQDRAVMPLGGREPMPVDIALVCATHRNLRSLIAQGQFREDLYYRLNGLAISLPPLRQRSDLAALVNHILFQCCGGEPHYSVSPEVMTLFKRHAWPGNLRQLHNVLDAALAMLDDGHVIEPHHLPEDFVMEVDSGLRPIEEDGSTAAHRARQPASGSGPAKKLQDLALDAIEQAIEQNEGNISVAARQLGVSRTTIYRKLRQLSPTGCHRPAHWSQSRIGT
Regarding B1, the “binding of BmoR upstream of the pBMO-promoter (band shift)” value in experiment [3] was “A band shift is observed”.
